In patent publication US11634666B2, “Methods for spore removal comprising a polysorbate surfactant and cationic antimicrobial mixture” (3M INNOVATIVE PROPERTIES COMPANY, priority 2015, dated 2023):

System: C. sporogenes spores ATCC 3584
Assay: In-vitro experiment to evaluate ability of test formulations to remove spores from skin like surfaces (Vitro-Skin, finger bag collection method)
Details: for log reduction of spores (in words): higher concentrations (1%)
Source text: The in-vitro method was designed to evaluate the removal of microbes from skin using a synthetic skin material from the cosmetic industry, Vitro-skin from IMS inc, Portland METhis method enables rapid screening of formulations for their propensity to promote release of microbes from skin and may be predictive of in-vivo activity.
The following materials were utilized. C. sporogenes spores ATCC 3584˜1.0×10^8 CFU/ml; Triton-X 100 sampling buffer (pH 7.4) Filter Sterilized: 0.4 g KH2PO4, 10.1 g Na2HPO4, 1 g Triton-X 100, and 1 L dH2O; D/E neutralizing broth; Fingers from disposable polyethylene gloves (VWR 32915-268); Sterile dH2O (WFI quality water); 3M AC Petrifilm; and 5 ml Falcon tubes; 1.5 ml EPI Centrifuge tubes; Petri Dishes; Vitro-Skin IMS Inc.; and double-sided tape.
The method included the following. Punched-out specified number of Vitro-Skin samples using the ¾″ punch. Attached punch-out Vitro-Skin samples to a Petri-dish or any other sterile flat surface using double-sided tape. Contaminated the Vitro-Skin samples accordingly with 10 μl of spores/spore prep (˜1×10^6 CFU/Sample). Used the pipette tip to spread spores over the surface and used a new pipette tip for each sample. Allowed the samples to dry (˜40 minutes). Placed three samples directly into separate finger bags containing 3 ml of triton-x 100 sampling solution or D/E neutralizing broth if one of the samples going to be tested contains antimicrobials. Used the “Finger bag collection method” below for each of the three recovery controls.
The Finger bag collection method was carried out as follows. First, a finger bag was cut from disposable gloves.
For the controls: Filled the finger bag with 3 ml of sampling solution. Placed contaminated Vitro-Skin sample into the finger bag containing sampling solution. Massaged finger bag for 1 minute using thumb and index finger. Removed aliquot of fluid from the finger bag and place into an appropriately labeled 1.5 ml centrifuge tube.
For the tested samples: Placed contaminated Vitro-Skin sample into a finger bag containing 3 ml of appropriate test solution. Massage in finger bag for 20 seconds. Removed the Vitro-Skin sample from the finger bag and place into a new finger bag containing 3 ml of sampling solution (Triton x-100 glove juice buffer or D/E neutralizing broth). Collected sample by using the finger bag collection method noted above. Repeat “Placed contaminated vitro-skin sample . . . ” to “Collected sample . . . ” for each of the test solutions.
For best statistical data each test solution was repeated 3 times. Heat treated appropriately labeled 1.5 ml centrifuge tubes containing aliquots of solution for 20 min at 80 C. Serially diluted samples in butterfield's buffer and plate 10^-1 to 10^-4 dilution on AC Petrifilm. Heat shocked, diluted, and plated spore stock day of experiment. Incubated Petrifilm in an anaerobic chamber at 37 C for 20-24 hours. Counted plates and analyzed data.

[1] = Example 3, added to water, all concentrations

Row | Compound | log reduction of spores (in words) (Example 3) | spore removal (in words) [1] | other results
1 | Cc1cc(O)cc(C)c1Cl [PCMX, 4-chloro-3,5-dimethylphenol] | good log reduction of spores |  | 
2 | Oc1cc(Cl)ccc1Oc1ccc(Cl)cc1Cl [Triclosan, 5-chloro-2-(2,4-dichlorophenoxy)phenol] | good log reduction of spores |  | 
3 | N=C(NCCCCCCNC(=N)NC(=N)Nc1ccc(Cl)cc1)NC(=N)Nc1ccc(Cl)cc1.O=C(O)[C@H](O)[C@@H](O)[C@H](O)[C@H](O)CO.O=C(O)[C@H](O)[C@@H](O)[C@H](O)[C@H](O)CO [chlorhexidine gluconate, Chlorhexidine gluconate] |  | poor spore removal | spore removal (in words) (Example 6, Tables 6a/6b): poor spore removal
4 | CCCCCCCCN=c1ccn(CCCCCCCCCCn2ccc(=NCCCCCCCC)cc2)cc1.Cl.Cl [octinidine, N,N′-(decane-1,10-diyldipyridin-1-yl-4-ylidene)dioctan-1-amine dihydrochloride] |  |  | spore removal (in words) (Example 3, higher concentration): unaffected
5 | benzalkonium chloride |  | poor spore removal | 
